The record followed here is US9254268B2, “Compositions comprising lipophilic active compounds and method for their preparation” (SOLUBEST LTD., priority 2007, dated 2016).

Series [1] in a line: Thermal properties by Differential Scanning Calorimetry (DSC). The note with it: for melting enthalpy (melting energy) / melting temperature (endothermic peak): DSC, after preparation.
Series [2] is described as follows: Particle size of aqueous dispersions by Dynamic Light Scattering. It counts as physicochemical. The note with it: powder suspended in water. On the procedure: (vii) Particle size of the nanodispersions: measurements were performed using Dynamic Light Scattering (DLS). The method was run on the Malvern Zen 3600, Zetasizer-nano series. The samples were prepared by suspending spray-dried powder in water (0.075-0.1%) at 25-30° C. First, water was added to the appropriate amount of the powder and the mixture was left for 15 min. Then, the suspension was magnetically stirred during 4 min at 300 rpm and 1 ml of the suspension was transferred to a cuvette for measurement. The cuvette was incubated inside the instrument during 5 min for stabilization prior measurement. A series of at least 5 repeating measurements was carried out at 25-30° C. Following parameters are reported from the analysis of volume weighed size distribution: polydispersity index (PDI), the diameter of the main fraction (Z-vol), volume % of main fraction.
The powders produced as described in Examples 1-9 have been suspended in deionized water as described in method (vii) of the section Materials and Methods.
In the Dynamic Light Scattering method, we used two main parameters to characterize the colloidal system: the hydrodynamic diameter of the particles and the width of distribution (polydispersity). […]

A short description of series [3]: Albendazole dissolution in 0.05 M sodium lauryl sulfate. The class given is physicochemical. The note with it: after 15 min. As to the method:
(iv) The dissolution test was performed in accordance with USP Dissolution Method <711> and FDA Dissolution Methods for Drug Products using the paddle apparatus Distek model 2100A. The quantification was performed using UV spectrophotometer. Appropriate amount of spray dried powders or tablets as well as control powders or tablets were dissolved in 1000 ml of 0.05 M water solution of sodium lauryl sulfate, at 37° C., […]

A short description of series [4]: Dissolution of resveratrol in Model Fasted Duodenal Solution (MFDS). It counts as physicochemical. On the procedure: The Model Fasted Duodenal Solution (MFDS) was prepared as follows: a mixture of sodium chloride (3.093 g), sodium hydrophosphate (1.719 g) and sodium taurocholate (0.8065 g) was dissolved in deionized water (300 g) using ultrasonic bath. Lecithin (0.2925 g) was dissolved in 2 ml methylene chloride and added to the buffered solution of sodium taurocholate. The resulting emulsion was stirred for 5 min and then methylene chloride was evaporated under vacuum. The obtained clear micellar solution was adjusted to the volume of 500 ml by deionized water.
For the test procedure, the test resveratrol formulations or raw resveratrol powder (10 mg) were placed into 2 ml microcentrifuge tube and MFDS (1.8 ml) was added to the each tube. The tubes were gently shaken (about 50 rpm) at 37° C. and samplings were taken at 10, 20, 40, 60 and 120 min. For this purpose, the tubes were vortexed at the highest speed for 60 seconds and then centrifuged at 13 000 G for 60 seconds. The solid-free supernatant (0.4 ml) was mixed with 0.4 ml diluent (30% water adjusted to pH 2.5 with phosphoric acid and 70% acetonitrile) and this solution was inserted into an HPLC instrument for determination of resveratrol concentration.

Consider `CC(C)c1c(C(=O)Nc2ccccc2)c(-c2ccccc2)c(-c2ccc(F)cc2)n1CC[C@@H](O)C[C@@H](O)CC(=O)O` [Example 18, Atorvastatin], for which the “broad DSC peak, range” value in series [1] (after storage of six months, attributed to beginning of crystallization) is 116-183 °C. In addition, the “kind of dispersion formed in water (observation)” value in series [2] is given as “coarse suspensions with large visible particles”.
As to `CC(C)OC(=O)C(C)(C)Oc1ccc(C(=O)c2ccc(Cl)cc2)cc1` [Fenofibrate starting material, Fenofibrate], in series [1], the “melting enthalpy (melting energy)” value came out at 74.3 J/g and the “melting temperature (endothermic peak)” value was “around 82 °C”.
With `CCCSc1ccc2nc(NC(=O)OC)[nH]c2c1` [Raw albendazole crystalline powder, Albendazole], in series [1], the “melting enthalpy (melting energy)” value was found to be 209.7 J/g and the “melting temperature (endothermic peak)” value is “around 215 °C”. In addition, the albendazole dissolved in series [3] is 16.6%.
Regarding `Oc1ccc(C=Cc2cc(O)cc(O)c2)cc1` [Resveratrol raw powder, Resveratrol], the Concentration of resveratrol amounted to 76.65 µg/mL in series [4] (10 min, MFDS, 37° C.); 103.15 µg/mL in series [4] (20 min); 119.3 µg/mL in series [4] (40 min); 121.05 µg/mL in series [4] (60 min); 155.6 µg/mL in series [4] (120 min).
